Holding throughout (assay type): cell-based, human
For one test, the system named is BT-549. Kind of test: NCI-60 cell line screen (SRB), BT-549. To be noted: Homo sapiens. The procedure: (§1) Drug sensitivity data are provided as GI50s (concentrations required to inhibit growth by 50%). The first row of the text file identifies cell lines, separated by tabs. Subsequent rows contain compound number, compound name, and GI50 for each cell line, each separated by a tab. […] For a typical screening experiment, cells are inoculated into 96 well microtiter plates in 100 μL at plating densities ranging from 5,000 to 40,000 cells/well depending on the doubling time of individual cell lines. After cell inoculation, the microtiter plates are incubated at 37° C., 5% CO2, 95% air and 100% relative humidity for 24 h prior to addition of experimental drugs. After 24 h, two plates of each cell line are fixed in situ with TCA, to represent a measurement of the cell population for each cell line at the time of drug addition (Tz). Experimental drugs are solubilized in dimethyl sulfoxide at 400-fold the desired final maximum test concentration and stored frozen prior to use. At the time of drug addition, an aliquot of frozen concentrate is thawed and diluted to twice the desired final maximum test concentration with complete medium containing 50 μg/ml gentamicin. Additional four, 10-fold or one-half log serial dilutions are made to provide a total of five drug concentrations plus control. Aliquots of 100 μl of these different drug dilutions are added to the appropriate microtiter wells already containing 100 μl of medium, resulting in the required final drug concentrations. Following drug addition, the plates are incubated for an additional 48 h at 37° C., 5% CO2, 95% air, and 100% relative humidity. For adherent cells, the assay is terminated by the addition of cold TCA. Cells are fixed in situ by the gentle addition of 50 μl of cold 50% (w/v) TCA (final concentration, 10% TCA) and incubated for 60 minutes at 4° C. The supernatant is discarded, and the plates are washed five times with tap water and air dried. Sulforhodamine B (SRB) solution (100 μl) at 0.4% (w/v) in 1% acetic acid is added to each well, and plates are incubated for 10 minutes at room temperature. After staining, unbound dye is removed by washing five times with 1% acetic acid and the plates are air dried. Bound stain is subsequently solubilized with 10 mM trizma base, and the absorbance is read on an automated plate reader at a wavelength of 515 nm. For suspension cells, the methodology is the same except that the assay is terminated by fixing settled cells at the bottom of the wells by gently adding 50 μl of 80% TCA (final concentration, 16% TCA). Using the seven absorbance measurements [time zero, (Tz), control growth, (C), and test growth in the presence of drug at the five concentration levels (Ti)], the percentage growth is calculated at each of the drug concentrations levels. […]

The next test relates to U-251. Kind of test: NCI-60 cell line screen (SRB), U-251. To be noted: Homo sapiens. The procedure:
as §1

The subject of the next test is SN12C. Kind of test: NCI-60 cell line screen (SRB), SN12C. To be noted: Homo sapiens. The procedure: as §1
The next test deals with MDA-MB-468. Nature of the test: NCI-60 cell line screen (SRB), MDA-MB-468. To be noted: Homo sapiens. The procedure:
as §1

In the next test the test system is NCI/ADR-RES. Kind of test: NCI-60 cell line screen (SRB), NCI/ADR-RES. To be noted: Homo sapiens. The procedure:
as §1

A further test relates to NCI-H226. Kind of test: NCI-60 cell line screen (SRB), NCI-H226. To be noted: Homo sapiens. The procedure:
as §1

The test system of a further test is RXF 393. Kind of test: NCI-60 cell line screen (SRB), RXF 393. To be noted: Homo sapiens. The procedure:
as §1

The test system of the next test is NCI-H460. Nature of the test: NCI-60 cell line screen (SRB), NCI-H460. The conditions noted are these: Homo sapiens. The procedure:
as §1

For a further test, the system named is PC-3. Nature of the test: NCI-60 cell line screen (SRB), PC-3. To be noted: Homo sapiens. The procedure:
as §1

A further test concerns SK-MEL-2. Nature of the test: NCI-60 cell line screen (SRB), SK-MEL-2. To be noted: Homo sapiens. The procedure:
as §1

The next test concerns Melanoma cell lines. Nature of the test: NCI-60 cell line screen, Melanoma panel average. The conditions noted are these: Homo sapiens, read-out: GI50 Average. The procedure:
as §1

For another test, the system named is SK-MEL-5. Kind of test: NCI-60 cell line screen (SRB), SK-MEL-5. The conditions noted are these: Homo sapiens. The procedure: as §1
For the next test, the system named is KM12. Kind of test: NCI-60 cell line screen (SRB), KM12. To be noted: Homo sapiens. The procedure:
as §1

In the next test the test system is OVCAR-4. Nature of the test: NCI-60 cell line screen (SRB), OVCAR-4. To be noted: Homo sapiens. The procedure: as §1
In the next test the test system is MCF-7. Nature of the test: NCI-60 cell line screen (SRB), MCF-7. The conditions noted are these: Homo sapiens. The procedure:
as §1

The test system of another test is Colon Cancer cell lines. Nature of the test: NCI-60 cell line screen, Colon Cancer panel average. The conditions noted are these: Homo sapiens, read-out: GI50 Average. The procedure: as §1
A further test has as its system SK-OV-3. Kind of test: NCI-60 cell line screen (SRB), SK-OV-3. The conditions noted are these: Homo sapiens. The procedure: as §1
The next test deals with LOX IMVI. Kind of test: NCI-60 cell line screen (SRB), LOX IMVI. The conditions noted are these: Homo sapiens. The procedure:
as §1

The test system of test [1] is Ovarian Cancer cell lines. Kind of test: NCI-60 cell line screen, Ovarian Cancer panel average. To be noted: Homo sapiens, read-out: GI50 Average. The procedure:
as §1

The test system of another test is Leukemia cell lines. Kind of test: NCI-60 cell line screen, Leukemia panel average. The conditions noted are these: Homo sapiens, read-out: GI50 Average. The procedure:
as §1

In the next test the test system is MDA-MB-435. Kind of test: NCI-60 cell line screen (SRB), MDA-MB-435. To be noted: Homo sapiens. The procedure:
as §1

For the next test, the system named is HCC-2998. Nature of the test: NCI-60 cell line screen (SRB), HCC-2998. To be noted: Homo sapiens. The procedure:
as §1

Another test deals with COLO 205. Kind of test: NCI-60 cell line screen (SRB), COLO 205. To be noted: Homo sapiens. The procedure: as §1
The test system of another test is HOP-92. Kind of test: NCI-60 cell line screen (SRB), HOP-92. The conditions noted are these: Homo sapiens. The procedure: as §1

Where two headings read alike, the source gives them in different places.

Usually GI50 stands for the concentration at which growth is held to half of that of the control. Regarding `CC1(C)CC(NC(=O)[C@H](Cc2ccc(OCc3c(Cl)cccc3Cl)cc2)NC(=O)c2ccc(OCCC[Si](C)(C)C)cc2)CC(C)(C)N1` [GH1501, N^α-{4-[3-(trimethylsilyl)propoxy]-benzoyl}-N-(2,2,6,6-tetramethylpiperidin-4-yl)-[O-(2,6-dichlorobenzyl)-L-tyrosinamide]], the 50% growth inhibitory concentration (GI50) stood at 2010 nM with BT-549 (BT-549, 48 h); 230 nM in the test with U-251 (U-251, 48 h); 564 nM in the test on SN12C (48 h); 1700 nM in the test on MDA-MB-468 (MDA-MB-468, 48 h); 1480 nM with NCI/ADR-RES (48 h); 1770 nM in the test on NCI-H226 (NCI-H226, 48 h). Besides, the GI50 was 1510 nM in the test on RXF 393 (RXF 393, 48 h); 253 nM with NCI-H460 (NCI-H460, 48 h); 1320 nM in the test with PC-3 (PC-3, 48 h); 1770 nM in the test on SK-MEL-2 (SK-MEL-2, 48 h); 1180 nM in the test with Melanoma cell lines; 1720 nM in the test with SK-MEL-5 (SK-MEL-5, 48 h). Moreover, the 50% growth inhibitory concentration (GI50) is 363 nM in the test with KM12 (KM12, 48 h); 1620 nM with OVCAR-4 (OVCAR-4, 48 h); 335 nM in the test with MCF-7 (MCF7, 48 h); 395 nM in the test on Colon Cancer cell lines; 2080 nM in the test on SK-OV-3 (SK-OV-3, 48 h); 197 nM in the test on LOX IMVI (48 h). The GI50 in [1] was 1370 nM; in the test with Leukemia cell lines, 802 nM; with MDA-MB-435 (MDA-MB-435, 48 h), 269 nM; in the test on HCC-2998 (HCC 2998, 48 h), 1050 nM; with COLO 205 (COLO 205, 48 h), 216 nM; with HOP-92 (HOP-92, 48 h) it was 1170 nM.
For `CCCC[Si](C)(C)COc1ccc(C(=O)N[C@@H](Cc2ccc(OCc3c(Cl)cccc3Cl)cc2)C(=O)NC2CC(C)(C)NC(C)(C)C2)cc1` [GH1503, N^α-{4-[(butyldimethylsilyl)methoxy]-benzoyl}-N-(2,2,6,6-tetramethylpiperidin-4-yl)-[O-(2,6-dichlorobenzyl)-L-tyrosinamide]], the GI50 in the test with BT-549 (Breast Cancer, BT-549, 48 h drug incubation, read-out: GI50) was found to be 2110 nM; in the test on U-251 (CNS Cancer, U-251, 48 h drug incubation, read-out: GI50), 234 nM; with SN12C (Renal Cancer, 48 h drug incubation, read-out: GI50) it was 613 nM; in the test with MDA-MB-468 (Breast Cancer, MDA-MB-468, 48 h drug incubation, read-out: GI50), 1540 nM; in the test on NCI/ADR-RES (Ovarian Cancer, 48 h drug incubation, read-out: GI50), 1250 nM; in the test on NCI-H226 (Non-Small Cell Lung Cancer, NCI-H226, 48 h drug incubation, read-out: GI50) it was 1340 nM. Also, the GI50 is 392 nM with RXF 393 (Renal Cancer, RXF 393, 48 h drug incubation, read-out: GI50); 259 nM in the test with NCI-H460 (Non-Small Cell Lung Cancer, NCI-H460, 48 h drug incubation, read-out: GI50); 490 nM with PC-3 (Prostate Cancer, PC-3, 48 h drug incubation, read-out: GI50); 1560 nM in the test on SK-MEL-2 (Melanoma, SK-MEL-2, 48 h drug incubation, read-out: GI50); 1130 nM in the test on Melanoma cell lines (average over Melanoma panel); 1680 nM in the test on SK-MEL-5 (Melanoma, SK-MEL-5, 48 h drug incubation, read-out: GI50). Also, the 50% growth inhibitory concentration (GI50) in the test on KM12 (Colon Cancer, KM12, 48 h drug incubation, read-out: GI50) worked out at 382 nM; with OVCAR-4 (Ovarian Cancer, OVCAR-4, 48 h drug incubation, read-out: GI50), 711 nM; in the test on MCF-7 (MCF7, Breast Cancer, MCF-7, 48 h drug incubation, read-out: GI50), 356 nM; in the test with Colon Cancer cell lines (average over Colon Cancer panel), 442 nM; in the test with SK-OV-3 (Ovarian Cancer, SK-OV-3, 48 h drug incubation, read-out: GI50) it was 2030 nM; in the test on LOX IMVI (Melanoma, 48 h drug incubation, read-out: GI50), 191 nM. The GI50 in [1] (average over Ovarian Cancer panel) is 1050 nM; with Leukemia cell lines (average over Leukemia panel), 572 nM; in the test with MDA-MB-435 (Melanoma, MDA-MB-435, 48 h drug incubation, read-out: GI50) it was 250 nM; with HCC-2998 (Colon Cancer, HCC-2998, 48 h drug incubation, read-out: GI50), 1070 nM; in the test with COLO 205 (Colon Cancer, COLO 205, 48 h drug incubation, read-out: GI50), 342 nM; in the test with HOP-92 (Non-Small Cell Lung Cancer, HOP-92, 48 h drug incubation, read-out: GI50), 1110 nM.
Take `CCCC[Si](C)(C)COc1ccc(C(=O)N[C@@H](Cc2ccc(-c3ccccc3)cc2)C(=O)NC2CC(C)(C)NC(C)(C)C2)cc1` [GH1504, N^α-{4-[(butyldimethylsilyl)methoxy]-benzoyl}-N-(2,2,6,6-tetramethylpiperidin-4-yl)-(4-phenyl-L-phenylalaninamide)]: the GI50 with BT-549 (BT-549, 48 h) worked out at 1960 nM; with U-251 (U-251, 48 h) it was 238 nM; with SN12C (48 h), 526 nM; in the test on MDA-MB-468 (MDA-MB-468, 48 h), 198 nM; in the test on NCI/ADR-RES (48 h) it was 1540 nM; in the test with NCI-H226 (NCI-H226, 48 h) it was 183 nM. Besides, the GI50 in the test on RXF 393 (RXF 393, 48 h) amounted to 179 nM; in the test with NCI-H460 (NCI-H460, 48 h), 348 nM; in the test on PC-3 (PC-3, 48 h), 1300 nM; with SK-MEL-2 (SK-MEL-2, 48 h), 944 nM; with Melanoma cell lines, 886 nM; in the test on SK-MEL-5 (SK-MEL-5, 48 h), 234 nM. Moreover, the GI50 in the test with KM12 (KM12, 48 h) is 376 nM; in the test with OVCAR-4 (OVCAR-4, 48 h), 521 nM; in the test on MCF-7 (MCF7, 48 h), 332 nM; with Colon Cancer cell lines, 408 nM; in the test on SK-OV-3 (SK-OV-3, 48 h), 2120 nM; with LOX IMVI (48 h), 207 nM. Besides, the GI50 was determined as 1150 nM in [1]; 1170 nM in the test on Leukemia cell lines; 292 nM in the test on MDA-MB-435 (MDA-MB-435, 48 h); 1110 nM in the test on HCC-2998 (HCC 2998, 48 h); 215 nM with COLO 205 (COLO 205, 48 h); 1370 nM in the test with HOP-92 (HOP-92, 48 h).

(Values after patent publication US9828393B2, “Silylalkyloxyaryl compounds and methods for treating cancer” (THE REGENTS OF THE UNIVERSITY OF COLORADO, a body corporate, priority 2013, dated 2017).)
